We go through 13 compounds from PubChem BioAssay (NCI).

What all share (test): NCI anticancer screen, dose series, 48 h
Assay [1] concerns DU-145 prostate.
For assay [2], the system named is UACC-62 melanoma.
Assay [3] has as its system SK-MEL-5 melanoma.
Assay [4] concerns HCT-15 colon.
Assay [5] relates to ACHN renal.
For assay [6], the system named is MDA-MB-231 breast.
For assay [7], the system named is LOX IMVI melanoma.
Assay [8] relates to SK-MEL-28 melanoma.
Assay [9] deals with M19-MEL melanoma.
Assay [10] has as its system DLD-1 colon.

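These data come from cells grown in 96-well plates and exposed to compound for 48 hours at five concentrations. Abbreviation: GI50, concentration required for 50% inhibition of growth. Definition used: TGI = concentration required for complete inhibition of growth.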

Take `C[C@@H]1CCC2[C@@H](C)[C@@H](OCC(CO[C@H]3OC4O[C@@]5(C)CC[C@H]6[C@H](C)CCC([C@H]3C)[C@@]46OO5)OC(=O)CCC(=O)O)OC3O[C@@]4(C)CC[C@@H]1[C@]32OO4` (some centres not stated): the GI50 in assay [1] was 6.4 µM; in assay [2], 0.0765 µM; in assay [3], 0.147 µM; in assay [4], below 0.01 µM; in assay [5], 0.126 µM; in [6], 0.0602 µM. The GI50 in assay [7] is below 0.01 µM; in assay [8], 11.4 µM. Besides, the TGI is 27.3 µM in [1]; 21.2 µM in assay [2]; 17.5 µM in assay [3]; 12.8 µM in assay [4]; 17.5 µM in assay [5]; 7.95 µM in assay [6]. In addition, the TGI in assay [7] is above 100 µM; in [8], above 47.4 µM.
In the case of `N#CC(C#N)=CNC(N)=S`, the TGI in assay [1], in [2], in assay [3], in [4], in [5] and in [6] was above 100 µM each time. Further, the TGI in assay [7] and in [8] was above 100 µM throughout.
On to `NS(=O)(=O)c1cc(Br)c(N=Nc2ccc(O)c3ncccc23)c(Br)c1`, for which the TGI in [1] was above 100 µM; in assay [2], 68.8 µM; in assay [3] it was above 100 µM; in assay [4], above 100 µM; in assay [5] it was 43.9 µM; in assay [6], above 100 µM. Moreover, the TGI in assay [7] and in assay [8] was above 100 µM in each case.
For `CC1(C)C2CCC(=O)C1CC2` (configuration not stated), the TGI in assay [1], in [2], in [3], in assay [4], in assay [5] and in assay [6] was above 100 µM throughout. In addition, the TGI in assay [7] and in assay [8] was above 100 µM in each case.
With `COC1=CC(=O)C(C2CC(=O)c3c(O)cc(O)cc3O2)=CC1=O` (configuration not stated), the TGI in assay [1] was 35.3 µM; in [2], 31.3 µM; in [3], 31.7 µM; in [4], 55.3 µM; in assay [5], 29.7 µM; in assay [6], 29.1 µM. Moreover, the TGI in [7] was 30.9 µM; in [8], 31.4 µM.
On to `Clc1ccc(C(c2ccc(Cl)cc2)c2ccccn2)cc1`, for which the TGI in [9] was above 100 µM; in [2] it was 33.4 µM; in assay [3], 33 µM; in assay [4] it was 38 µM; in [10], 83.5 µM; in assay [5], 45.9 µM. In addition, in [7], the TGI amounted to 30.4 µM.
On to `Cn1cnc([N+](=O)[O-])c1S(=O)(=O)Oc1cccc2ccccc12`, for which the GI50 was 3.14 µM in assay [1]; 7.12 µM in assay [2]; 13.7 µM in [3]; 1.97 µM in [4]; 1.97 µM in [5]; 4.46 µM in assay [6]. Moreover, the GI50 in [7] was 2.04 µM; in [8], 4.68 µM. Moreover, the TGI stood at 8.03 µM in [1]; 20.8 µM in assay [2]; 28.8 µM in assay [3]; 4.72 µM in assay [4]; 4.21 µM in assay [5]; 14 µM in assay [6]. Besides, the TGI in assay [7] was 5.73 µM; in assay [8], 14.5 µM.
As to `O=C(/C=C/c1ccc(Cl)cc1)c1ccc(Nc2ccnc3cc(Cl)ccc23)cc1`, the GI50 was 27.6 µM in assay [1]; above 100 µM in assay [2]; 23.7 µM in [4]; above 100 µM in [5]; 20.3 µM in assay [6]; above 46.6 µM in assay [7]. Also, the GI50 in assay [8] was 31.9 µM. The TGI in assay [1] is above 100 µM; in assay [2], above 100 µM; in assay [3], above 53.8 µM; in assay [4], above 100 µM; in assay [5], above 100 µM; in assay [6] it was above 58.4 µM. Moreover, the TGI in assay [7] and in assay [8] was above 100 µM each time.
With `CC(C)C(C)/C=C\C(C)C1CCC2C3=CC=C4CC(O)CCC4(C)C3CCC21C` (configuration not stated), the TGI was above 100 µM in [1]; above 66.6 µM in assay [2]; 62.3 µM in [3]; above 71.3 µM in assay [4]; above 65.7 µM in assay [5]; above 61.3 µM in assay [6]. In addition, the TGI in [7] was above 57.2 µM; in assay [8], above 60.5 µM.
Turning to `Cc1cc(O)c(/C=N/C(=S)NCc2ccccc2)c(=O)o1`, the TGI in [1], in assay [2], in [3], in assay [4], in [5] and in assay [6] was above 100 µM throughout. For the same compound, the TGI in assay [7] and in assay [8] was above 100 µM throughout.
For the compound `Brc1ccccc1C1SCc2nc3ccccc3n21` (configuration not stated), the TGI in assay [9] is 34.8 µM; in [3], 18.7 µM; in assay [4], 25.4 µM; in assay [10], 26.7 µM; in assay [5] it was 81 µM; in assay [7], 26 µM.
As for `CCOC(=O)c1cc2nc3ccccc3c(=O)n2c2ccccc12`, the TGI in [1], in assay [2], in assay [3], in assay [4], in assay [5] and in assay [6] was above 10 µM each time. Moreover, the TGI in [7] and in assay [8] was above 10 µM each time.
For `Cc1cc2c(cc1Cl)SC(N(N(C)C)S(=O)(=O)c1ccc(Cl)cc1)=NS2(=O)=O`, the GI50 in assay [1] was 27.8 µM; in assay [2], 22 µM; in assay [3], 15.4 µM; in assay [4], 25.9 µM; in [5] it was 32.1 µM; in [6], 22.5 µM. The figures for the GI50 in assay [7] and in [8] were 33.4 µM and 29.1 µM, respectively. Also, the TGI was 99.4 µM in assay [1]; 56.1 µM in [2]; 28.7 µM in [3]; above 100 µM in assay [4]; above 100 µM in assay [5]; 55 µM in assay [6]. The TGI in assay [7] and in [8] was above 100 µM throughout.
